Results reported in patent publication US20060014726A1, “Derivatives of cyclic1, 3- propanediol phosphate and their action in differentiation therapy” (priority 2002, published 2006).

Tests used:
[1] = test system: K562 cells
Description: It is known from the literature that sodium butyrate derives K562 cells into the erythroid differentiation program (Sutherland et al. 1986). Base on such an observation, the ability of 1,3-cPP alone or in combination with sodium butyrate may trigger the erythroid differentiation program manifested by hemoglobin production.
K562 cells were incubated for 5 days in the presence or absence of 10 or 50 μM 1,3cPP and 1 mM butyric acid as a differentiating agent. Quantitative measurements of hemoglobin production was determined by staining of lysed cells with benzidine-peroxide reagent. The benzidine-peroxide reagent was prepared by dissolving 3,3′,5,5′-tetramethyl benzidine in 90% acetic acid and mixing with an equal volume of freshly prepared 1% hydrogen peroxide. Cell lysate, obtained by hypotonic lysing of 5×10^4 cells in 0.1 ml distilled water, was added to 0.1 ml benzidine reagent and incubated at room temperature for 10 minutes in the dark. Absorbance was measured at 515 nm and was taken as a relative index of the hemoglobin level.

[2] = test system: progesterone receptor (PR) in MCF-7 cells; experiment: Western blot analysis of PR level in MCF-7 cells; assay type: cell-based, human; details: MCF-7 cells treated for 9 days (FIG. 10)
Description: In an analogous manner, a set of experiments was preformed with MCF-7 cells for determining the level of PR upon incubation with varying concentrations of 1,3-cPP for a period of up to 11 days. Similar to the augmentation observed for ER-α, an increase of up to 2.8 and 2.2 fold expression of the wild type PR (MW 98,000), was observed from 10 μM 1,3-cPP and upwards on days 8 and 11, respecively (FIGS. 3A-D).
(§1) Breast Cancer Cells. The human breast cancer MCF-7 cell line were obtained from Prof. Hadassa Degani, of Weizmann Institute of Science, Rehovot, Israel. The cells were grown as monolayers in high glucose DMEM supplemented with 6% fetal calf serum and combined antibiotics. Human breast cancer T47D cells, clones 8 (ER^loPR^lo) and 11 (ER^+PR^+) were obtained from Prof Iafa Keydar, Tel-Aviv university and were grown in DMEM supplemented with 10% fetakl calf serum antibiotics. K562 erythroleukemia cells were obtained from Dr. Alfa Peled of Weizmann Institute of Science, Rehovot, Israel. These cells were grown in RPMI 1640 containing 10% fetal calf serum and antibiotics. All lines were grown at 37° C. in the presence of 5% CO2. The absence of Mycoplasma contamination was monitored by a Mycotrim TC test (Irvine Scientific, Santa Ana, Calif.) carried out once every 3 months.
(§2) For ER-α protein analysis, MCF-7 and T47D cells were cultured in 60×15 mm petri dishes. From the second day of culture onward, the cells were treated with various concentrations of 1,3cPP for up to 14 days. At the end of the incubation period, the medium was aspirated and the cells were washed 3 times with cold (4° C.) PBS. […] The protein concentration in each sample (1.5-4 mg/ml) was determined using the Coomassie Protein Assay (Pierce, Rockford, Ill.) according to the manufacturer's instructions. […] Bound antibodies were detected by horseradish peroxidase-conjugated goat anti-rabbit IgG, (Transduction Laboratories, Lexington, Ky. using the ECL detection method. Band densities were quantified by densitometry (Biorad model GS-690 Imaging densitometer) using Molecular Analyst software.

[3] = test system: Casein Kinase in MCF-7 cells; experiment: Casein Kinase level in MCF-7 cells; assay type: cell-based, human; details: MCF-7 cells treated for 9 days (FIG. 11)
[4] = test system: estrogen receptor-α (ER-α) in MCF-7 cells; experiment: Western blot analysis of ER-α level in MCF-7 cells; assay type: cell-based, human; details: MCF-7 cells treated for 9 days (FIG. 9)
Description: Turning to FIG. 1 there are shown Western blot analyses showing the effect of 1,3cPP on the expression level of ER-α. In the ER-α assay, MCF-7 cells were incubated with 1-100 μM 1,3cPP for up to 14 days. The analysis indicates a relative increase in the level of wild type ER-α receptor (MW 70,000) with either an increase in 1,3cPP concentration or time of incubation. On days 6 and 14, a nearly 2-fold and 3-fold increase were observed, respectively (FIGS. 1A, C, D, F). […] This band could be related to one of deleted exons D3-4 (MW 49,000), D4 (MW 54,000), or D7 (MW 51,000) ER-α variants.
as §1
as §2, with “PBS. The cells were then gently scraped off using a rubber policeman in 0.25 ml of lysis buffer composed of 50 mM β-glycerophosphate, 1 mM DTT, 1.5 mM EGTA, 1 mM EDTA, 1% (Octylphenoxy)polyethoxyethanol (IGEPAL, Sigma, St. Louis, Mo.), a nonionic detergent, and a cocktail of protease inhibitors, including 1 mM phenylmethylsulfonyl fluoride (PMSF), 1 mM benzamidine, 10 μg/ml aprotinin, 10 μg/ml leupeptin, and 2 μg/ml pepstanin, as well as 1 mM sodium orthovanadate (Sigma, St. Louis, Mo.) as a phosphatase inhibitor.” for “PBS.”

Structure (SMILES)	hemoglobin synthesis [1]	progestrone receptor level [2]	Casein Kinase level [3]	Estrogen receptor alpha level [4]
CCCC(=O)[O-].[Na+] [sodium butyrate, reference compound]	only a small effect	–	–	–
NC1(CO)COP(=O)(O)OC1 (stereo not shown) [Example 18, 5-Amino-5-hydroxymethyl-2-oxo-2λ5-[1,3,2]dioxaphosphi-nan-2-ol]	–	promotion of synthesis	promotion of Casein Kinase levels	promotion of synthesis
